# What was measured:
# S. coralus KCCM 40642 = assay: rifampin genotype by rpoB nucleotide sequence analysis; details: TCG (TCC) genotype
# Protocol: (§1) The primer sets of SEQ ID NOs: 1 and 2 were used to amplify rpoB genes of 60 strains, and nucleotides of the […] products were analyzed with an automatic sequencer. SRPOF1 as a forward primer and SRPOR1 as a backward primer were used.
# S. caseius KCCM 40740 = assay: as above; details: TCG (TCC) genotype
# Protocol: as §1
# S. anabdii KCTC 9687 = assay: as above; details: TCG (TCC) genotype
# Protocol: as §1
# 60 strains = assay: rifampin genotype by rpoB nucleotide sequence analysis (summary); design: species or system Streptomyces; details: the other 41 strains with TCG or TCC at the 352nd position
# Protocol: as §1
# [1] = test system: S. flavotricini KCCM 40520; details: TCG (TCC) genotype
# Protocol: The primer sets of SEQ ID NOs: 1 and 2 were used to amplify rpoB genes of 60 strains, and nucleotides of the 352-bp products were analyzed with an automatic sequencer. SRPOF1 as a forward primer and SRPOR1 as a backward primer were used.
# [2] = test system: 47 strains of Streptomyces references; assay: rifampin-sensitive test on Bennet solid media (summary); type: cell-based; details: 25 ug/ml rifampin, 72 hr
# Protocol: A total of 47 strains of Streptomyces references including 24 reference strains having AAC encoding Asp and 23 reference strains having TCG or TCC encoding Ser at the sequenced positions were used, and 306-bI rpoB nucleotide sequences of the […] strains are shown in SEQUENCE LISTING.
# The 47 strains were respectively cultured at 28° C. for 72 hr in Bennet liquid media. The culture solution was then inoculated on Bennet solid media (yeast extract 1 g/L, Beef extract 1 g/L, Tryptone 2 g/L, Glycerol 10 g/L, Agar 15 g/L) containing 25 ug/ml rifampin, and after incubation for 72 hr, rifampin-resistance was tested.
# S. humidus KCCM 40647 = assay: rifampin genotype by rpoB nucleotide sequence analysis
# Protocol: as §1
# (§2) FIG. 8 is an electropherogram obtained by amplifying 306-bp rpoB gene fragment with the SRPOF1 and SRPOR1 primer set and automatically sequencing with an SRPOF1 primer.
# [3] = test system: S. anthocyanicus KCTC 9755; assay: as above; details: AAC genotype
# Protocol: as §1, §2
# [4] = test system: S. atroolvaceous KCTC 9017; assay: as above
# Protocol: as §1, §2
compound,measurement,setting,value
CO[C@H]1/C=C/O[C@@]2(C)Oc3c(C)c(O)c4c(O)c(c(/C=N/N5CCN(C)CC5)c(O)c4c3C2=O)NC(=O)/C(C)=C\C=C\[C@H](C)[C@H](O)[C@@H](C)[C@@H](O)[C@@H](C)[C@H](OC(C)=O)[C@@H]1C [rifampin],genotype (rifampin-resistant or -sensitive strain),S. coralus KCCM 40642,−
same,genotype (rifampin-resistant or -sensitive strain),S. caseius KCCM 40740,−
same,genotype (rifampin-resistant or -sensitive strain),S. anabdii KCTC 9687,−
same,rifampin genotype of the strains,60 strains,rifampin-sensitive genotypes
same,genotype (rifampin-resistant or -sensitive strain),[1],−
same,rifampin resistance or sensitivity of the strains,[2]; all 24 strains having AAC genotypes,rifampin-resistant strains
same,rifampin resistance or sensitivity of the strains,[2]; the 23 strains having TCG or TCC genotypes,rifampin-sensitive strains
same,rifampin resistance or sensitivity of the strain,"S. humidus KCCM 40647; S. humidus (KCCM 40647), TCG genotype, identical to the known sensitivity results",rifampin-sensitive strains
same,genotype (rifampin-resistant or -sensitive strain),"S. humidus KCCM 40647; S. humidus KCCM 40647, TCG (TCC) genotype",−
same,rifampin resistance or sensitivity of the strain,"[3]; S. anthocyanicus (KCTC 9755), identical to the known sensitivity results",rifampin-resistant strain
same,genotype (rifampin-resistant or -sensitive strain),[3]; S. anthocyanicus KCTC 9755,+
same,rifampin resistance or sensitivity of the strain,"[4]; S. atroolvaceous (KCTC9017), TCG genotype, identical to the known sensitivity results",rifampin-sensitive strains
same,genotype (rifampin-resistant or -sensitive strain),"[4]; S. atroolvaceous KCTC 9017, TCG (TCC) genotype",−
